Test results from US20250230165A1, “HETEROCYCLIC COMPOUNDS FOR USE IN THE TREATMENT OF CANCER” (ARTIOS PHARMA LIMITED, priority 2021, published 2025).

molecular target: T1, Human Polθ polymerase domain (aa1820-2590) (Homo sapiens, UniProt O75417); experiment: Polθ Polymerase Domain Kinact/KI Assay (PicoGreen); format: biochemical; settings: 0.8 nM Polθ, 100 nM DNA substrate, kobs vs [I] fit for 2-step covalent inhibitor
T1 construct: Human Polθ polymerase domain (aa1820-2590) was expressed in E. coli; made in house; host or cells: E. coli
T1 sequence (O75417 1820-2590): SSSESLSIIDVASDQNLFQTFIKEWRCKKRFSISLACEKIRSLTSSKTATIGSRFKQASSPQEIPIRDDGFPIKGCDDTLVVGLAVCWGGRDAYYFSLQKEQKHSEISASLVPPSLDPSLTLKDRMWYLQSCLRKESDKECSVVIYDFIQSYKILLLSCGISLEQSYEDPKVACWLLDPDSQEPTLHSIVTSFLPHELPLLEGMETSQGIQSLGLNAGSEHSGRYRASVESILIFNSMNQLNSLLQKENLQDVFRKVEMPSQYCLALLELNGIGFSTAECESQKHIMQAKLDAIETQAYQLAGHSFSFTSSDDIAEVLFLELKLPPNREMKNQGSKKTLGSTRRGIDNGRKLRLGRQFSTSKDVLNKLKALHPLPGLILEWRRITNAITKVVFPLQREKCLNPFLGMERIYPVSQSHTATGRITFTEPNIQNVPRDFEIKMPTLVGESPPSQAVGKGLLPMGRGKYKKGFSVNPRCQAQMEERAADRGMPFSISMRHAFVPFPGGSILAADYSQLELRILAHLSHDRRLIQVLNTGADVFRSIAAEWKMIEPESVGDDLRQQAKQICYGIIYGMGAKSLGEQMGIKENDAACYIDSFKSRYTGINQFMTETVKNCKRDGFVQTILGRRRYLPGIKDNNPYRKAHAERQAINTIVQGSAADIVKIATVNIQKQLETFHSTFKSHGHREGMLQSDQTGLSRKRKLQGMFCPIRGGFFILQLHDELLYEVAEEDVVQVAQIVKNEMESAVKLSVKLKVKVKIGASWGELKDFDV
Protocol: Polθ Polymerase Domain Kinact/KI Assay
A PicoGreen assay was used to measure the Kinact and KI values of covalent compounds that inhibit the activity of Polθ in vitro.
Human Polθ polymerase domain (aa1820-2590) was expressed in E. coli, purified, aliquoted and stored at −80° C. until required. Polθ substrate was generated from a 1.2:1 mix of DNA II Short to DNA II Long to give a final concentration of […] substrate in annealing buffer (20 mM Tris pH 7.5, 50 mM NaCl). The substrate was heated in […] aliquots to 95° C. in a heating block for 5 min before the heating block switched off, the reaction left to cool to rt and stored at −20° C. until required.
Assay measurements were performed with 1× buffer comprising 25 mM Tris pH 7.5, 12.5 mM NaCl, […], 5% (v/v) glycerol, 0.01% v/v Triton x-100, 0.1 mg/ml BSA, 1 mM DTT. Test compounds were prepared by dilution in 100% DMSO to give a 12 μM intermediate stock of each (100× final top concentration). 100 nL of 23×1:1.5-fold serial dilutions and a DMSO only control were dispensed using the Tecan dispenser into Greiner 384 well black low volume plates (product code 784076). DMSO concentration was maintained at 1% of the final assay volume by back filling with DMSO.
2× Working stock of substrate (200 nM of DNA substrate and […] dNTPs) and enzyme ([…] PolΘ) were made up in assay buffer. 5 μL/well of both enzyme and substrate 2× solutions were dispensed using a Tempest dispenser (Formulatrix) into assay plates that had been pre-dispensed with compound to give a final assay concentration of 100 nM DNA substrate, […] dNTPs and 0.8 nM Polθ. To stop the reaction, […] of a solution containing 25 mM Tris-HCl pH 7.5 and 20 mM EDTA was added at […] (t=0, 2.5, 5, 7.5, 10, 12.5, 15, 20, 25, 30, 35, 40, 45, 50, 55 and 60 min) using the Tempest's time delay function. The plates were covered during the time course to prevent evaporation. After completing the assay, 5 μL of detection reagent (25 mM Tris-HCl pH 7.5 and 2.5% (v/v) PicoGreen) was dispensed into the wells using a Tempest liquid handler (Formulatrix) and plates subsequently read on the CLARIOstar Plus (BMG Labtech) using the default optical settings for fluorescein and the auto gain/focus settings.
All data analysis was carried out using GraphPad Prism V.8 (GraphPad Software Inc, San Diego, CA) Time course data for each inhibitor concentration was fitted to equation 1 to determine kobs values.^1 Any time points where the control (DMSO alone) reaction was no longer linear were excluded from the analysis. 1) Evaluation of Enzyme Inhibitors in Drug Discovery (Ch9), R. A Copeland, Wiley, 2nd Edition 2013.
A secondary plot of kobs vs [I] is used to determine the Kinact and KI parameters (for a 2-step covalent inhibitor) by fitting to equation 2.^1

Row | SMILES | Kinact/Kl [M⁻¹ s⁻¹]
1 | C=CC(=O)N1CCN2CCN(CCN3C[C@H]4CC(=O)N(c5cc(C(F)(F)F)cc(C)n5)[C@@H]4C(=O)N(C)c4cccc(F)c43)C[C@H]2C1 (racemic) [Example 23a, (3aR,11aS)-5-(2-((S/R)-8-acryloyloctahydro-2H-pyrazino[1,2-a]pyrazin-2-yl)ethyl)-6-fluoro-10-methyl-1-(6-methyl-4-(trifluoromethyl)pyridin-2-yl)-1,3a,4,5,10,11a-hexahydro-2H-benzo[b]pyrrolo[2,3-f][1,4]diazocine-2, 11(3H)-dione] | 140000
2 | C=CC(=O)N1CC2(CN(CCN3C[C@H]4CC(=O)N(c5cc(C(F)(F)F)cc(C)n5)[C@@H]4C(=O)N(C)c4cccc(F)c43)C[C@H]3COCCN32)C1 (racemic) [Example 24b, (3aR,11aS)-5-(2-((S/R)-1-acryloyltetrahydro-1′H-spiro[azetidine-3,6′-pyrazino[2,1-c][1,4]oxazin]-8′(7′H)-yl)ethyl)-6-fluoro-10-methyl-1-(6-methyl-4-(trifluoromethyl)pyridin-2-yl)-1,3a,4,5,10,11a-hexahydro-2H-benzo[b]pyrrolo[2,3-f][1,4]diazocine-2, 11(3H)-dione] | 290000
3 | C=CC(=O)N1CC2(CN(CCN3C[C@H]4CC(=O)N(c5cc(C(F)(F)F)cc(C)n5)[C@@H]4C(=O)N(C)c4cccc(Cl)c43)C[C@H]3COCCN32)C1 (racemic) [Example 26b, (3aR,11aS)-5-(2-((S/R)-1-acryloyl-tetrahydro-1′H-spiro[azetidine-3,6′-pyrazino[2,1-c][1,4]oxazin]-8′(7′H)-yl)ethyl)-6-chloro-10-methyl-1-(6-methyl-4-(trifluoromethyl)pyridin-2-yl)-1,3a,4,5,10,11a-hexahydro-2H-benzo[b]pyrrolo[2,3-f][1,4]diazocine-2, 11(3H)-dione] | 1.29e+06
4 | C=CC(=O)N1CC2(C1)NCCN(CCN1C[C@H]3CC(=O)N(c4cc(C(F)(F)F)cc(C)n4)[C@@H]3C(=O)N(C)c3cccc(F)c31)[C@H]2C (racemic) [Example 34a, (3aR,11aS)-5-(2-((S/R)-2-acryloyl-9-methyl-2,5,8-triazaspiro[3.5]nonan-8-yl)ethyl)-6-fluoro-10-methyl-1-(6-methyl-4-(trifluoromethyl)pyridin-2-yl)-1,3a,4,5, 10,11a-hexahydro-2H-benzo[b]pyrrolo [2,3-f][1,4]diazocine-2,11(3H)-dione] | 1.2e+06
5 | C=CC(=O)N1CCC[C@H]1c1ccc(CN2C[C@H]3CC(=O)N(c4cc(C(F)(F)F)cc(C)n4)[C@@H]3C(=O)N(C)c3cccc(F)c32)cc1 (racemic) [Example 141b, (3aR,11aS)-5-(4-((S/R)-1-acryloylpyrrolidin-2-yl)benzyl)-6-fluoro-10-methyl-1-(6-methyl-4-(trifluoromethyl)pyridin-2-yl)-1,3a,4,5,10,11a-hexahydro-2H-benzo[b]pyrrolo[2,3-f][1,4]diazocine-2,11(3H)-dione] | 100000
6 | C=CC(=O)N1CCn2cc(CN3C[C@H]4CC(=O)N(c5cc(C(F)(F)F)cc(C)n5)[C@@H]4C(=O)N(C)c4cccc(Cl)c43)nc2[C@@H]1C (racemic) [Example 142b] | 630000
7 | C=CC(=O)N1Cc2nc(CN3C[C@H]4CC(=O)N(c5cc(C(F)(F)F)cc(C)n5)[C@@H]4C(=O)N(C)c4cccc(Cl)c43)cn2C[C@H]1C (racemic) [Example 143b, (3aR,11aS)-5-(((S/R)-7-acryloyl-6-methyl-5,6,7,8-tetrahydroimidazo[1,2-a]pyrazin-2-yl)methyl)-6-chloro-10-methyl-1-(6-methyl-4-(trifluoromethyl)pyridin-2-yl)-1,3a,4,5,10,11a-hexahydro-2H-benzo[b]pyrrolo[2,3-f][1,4]diazocine-2,11(3H)-dione] | 2.32e+06

Further lines, results first:

Row | Kinact/Kl [M⁻¹ s⁻¹] | SMILES
8 | 54000 | C=CC(=O)N1CC[C@]12CCN(CCN1C[C@H]3CC(=O)N(c4cc(C(F)(F)F)cc(C)n4)[C@@H]3C(=O)N(C)c3cccc(F)c31)C2 (racemic) [Example 21a, (3aR,11aS)-5-(2-((S/R)-1-acryloyl-1,6-diazaspiro[3.4]octan-6-yl)ethyl)-6-fluoro-10-methyl-1-(6-methyl-4-(trifluoromethyl)pyridin-2-yl)-1,3a,4,5,10,11a-hexahydro-2H-benzo[b]pyrrolo[2,3-f][1,4]diazocine-2, 11(3H)-dione]
9 | 660000 | C=CC(=O)N1CC(N(C)C[C@H](O)CN2C[C@H]3CC(=O)N(c4cc(C(F)(F)F)cc(C)n4)[C@@H]3C(=O)N(C)c3cccc(Cl)c32)C1 (racemic) [Example 68, (3aR,11aS)-5-((S/R)-3-((1-acryloylazetidin-3-yl)(methyl)amino)-2-hydroxypropyl)-6-chloro-10-methyl-1-(6-methyl-4-(trifluoromethyl)pyridin-2-yl)-1,3a,4,5,10,11a-hexahydro-2H-benzo[b]pyrrolo[2,3-f][1,4]diazocine-2,11(3H)-dione]
10 | 3.5e+06 | C=CC(=O)N1CC2(CN(CCN3C[C@H]4CC(=O)N(c5cc(C(F)(F)F)cc(C)n5)[C@@H]4C(=O)N(C)c4cccc(Cl)c43)C[C@H]2C#N)C1 (racemic) [Example 117b, (S/R)-2-acryloyl-6-(2-((3aR,11aS)-6-chloro-10-methyl-1-(6-methyl-4-(trifluoromethyl)pyridin-2-yl)-2,11-dioxo-1,2,3,3a,4,10,11,11a-octahydro-5H-benzo[b]pyrrolo[2,3-f][1,4]diazocin-5-yl)ethyl)-2,6-diazaspiro[3.4]octane-8-carbonitrile]
11 | 3.36e+06 | C=CC(=O)N1CC2(CN(CCN3C[C@H]4CC(=O)N(c5cc(C(F)(F)F)cc(C)n5)[C@@H]4C(=O)N(C)c4cccc(C)c43)C[C@H]2C#N)C1 (racemic) [Example 118b, (S/R)-2-acryloyl-6-(2-((3aR,11aS)-6,10-dimethyl-1-(6-methyl-4-(trifluoromethyl)pyridin-2-yl)-2,11-dioxo-1,2,3,3a,4,10,11,11a-octahydro-5H-benzo[b]pyrrolo[2,3-f][1,4]diazocin-5-yl)ethyl)-2,6-diazaspiro[3.4]octane-8-carbonitrile]
12 | 3.87e+06 | C=CC(=O)N1CC2(CN(CCN3C[C@H]4CC(=O)N(c5cc(C(F)(F)F)cc(C)n5)[C@@H]4C(=O)N(C)c4cccc(C)c43)C[C@@]2(C)C#N)C1 (racemic) [Example 119b, (S/R)-2-acryloyl-6-(2-((3aR,11aS)-6,10-dimethyl-1-(6-methyl-4-(trifluoromethyl)pyridin-2-yl)-2,11-dioxo-1,2,3,3a,4,10,11,11a-octahydro-5H-benzo[b]pyrrolo[2,3-f][1,4]diazocin-5-yl)ethyl)-8-methyl-2,6-diazaspiro[3.4]octane-8-carbonitrile]
